Here are results for 3 compounds from US6306860A, “2,5-pyridinedicarboxylic acid derivatives” (Dong Wha Pharm. Inc. Co., Ltd., priority 1998, dated 2001).

The target in one experiment is T1, HBV polymerase (Hepatitis B virus genotype D subtype ayw, UniProt P03156).
T1 construct: made in house; host or cells: E. coli
Briefly: Inhibitory activities against HBV polymerase (reverse transcriptase activity) in vitro. It counts as biochemical. To be noted: read-out: Inhibitory activity of HBV-RT (%). A digest of the protocol: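 Recombinant HBV polymerase expressed in E. coli was incubated with reaction mixture and test compound for 18~24 hours at 14° C.~30° C. Reverse transcriptase product, labelled with biotin- and DIG-modified nucleotide, detected ELISA-style with peroxidase anti-DIG antibody; inhibition judged relative to controls without compound.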

Experiment [1] deals with T2, HIV reverse transcriptase (Human immunodeficiency virus type 1 group M subtype B, UniProt P04585).
T2 construct: purchased Boehringer Mannheim
Briefly: In vitro inhibition test against HIV reverse transcriptase. It counts as biochemical. To be noted: read-out: Inhibitory activity of HIV-RT (%). In outline:
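Non-radioactive colorimetric kit assay: 40 ng HIV-RT with poly(A)/oligo(dT)15 template/primer plus DIG-dUTP, biotin-dUTP and TTP, incubated with compound 1 h at 37 °C. Product captured on streptavidin, detected with anti-DIG-POD and ABTS; A405 read, with activity compared to a no-compound control.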

In the next experiment the test system is HBV. The conditions noted are these: results of some studies; cited from earlier work.

Structures can show the parent of a compound that is named as a salt.

T1 sequence (P03156 whole entry): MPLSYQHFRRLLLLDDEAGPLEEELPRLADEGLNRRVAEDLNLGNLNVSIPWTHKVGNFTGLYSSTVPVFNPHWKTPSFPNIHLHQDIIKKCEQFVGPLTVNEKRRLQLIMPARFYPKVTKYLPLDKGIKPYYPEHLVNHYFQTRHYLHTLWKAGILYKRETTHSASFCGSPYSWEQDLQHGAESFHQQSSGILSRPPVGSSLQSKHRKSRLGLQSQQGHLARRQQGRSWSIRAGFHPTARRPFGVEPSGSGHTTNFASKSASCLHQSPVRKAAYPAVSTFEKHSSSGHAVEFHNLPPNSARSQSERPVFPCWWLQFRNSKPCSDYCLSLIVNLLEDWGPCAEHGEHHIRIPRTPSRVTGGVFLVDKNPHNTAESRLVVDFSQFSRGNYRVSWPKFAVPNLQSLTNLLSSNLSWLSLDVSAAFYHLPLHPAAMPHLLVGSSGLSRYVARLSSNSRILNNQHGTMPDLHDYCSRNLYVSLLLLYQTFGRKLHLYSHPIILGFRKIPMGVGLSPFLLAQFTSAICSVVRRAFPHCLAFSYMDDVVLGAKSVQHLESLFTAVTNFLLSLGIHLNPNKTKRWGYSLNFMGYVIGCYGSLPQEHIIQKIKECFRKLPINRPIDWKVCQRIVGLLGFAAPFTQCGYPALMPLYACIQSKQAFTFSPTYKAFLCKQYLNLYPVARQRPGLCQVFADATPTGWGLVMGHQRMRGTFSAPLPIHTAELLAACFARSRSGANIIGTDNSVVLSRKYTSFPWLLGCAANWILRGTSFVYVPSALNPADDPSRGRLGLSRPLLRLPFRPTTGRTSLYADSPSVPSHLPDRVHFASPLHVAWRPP

Regarding `O=C(NCc1ccco1)c1ccc(C(=O)N2CCN(CCO)CC2)nc1` [Exam. 103, N-(2-Furylmethyl)-6-[1-(2-hydroxyethyl)piperazin-4-yl-carbonyl]nicotinamide.HCl], on HBV polymerase (0.01 μg/ml), the inhibition at 0.01 µg/mL is 20%. Moreover, the inhibition at 0.1 µg/mL at HBV polymerase (0.1 μg/ml) was 54%; in experiment [1] (0.1 μg/ml), 65%. In addition, the inhibition at 1 µg/mL amounted to 72% on HBV polymerase (1 μg/ml) and 80% in experiment [1] (1 μg/ml).
As to `CC(=O)OCC(CCn1cnc2cnc(N)nc21)COC(C)=O` [Famvir], the “suppressing the proliferation of HBV” value with HBV is “effective in suppressing the proliferation of HBV”.
For `Nc1ccn([C@@H]2CS[C@H](CO)O2)c(=O)n1` [Lamivudine], in the experiment with HBV, the “suppressing the proliferation of HBV” value is given as “effective in suppressing the proliferation of HBV”.
